Source: patent publication US9000028B2, “Indole and indazole compounds as an inhibitor of cellular necrosis” (LG Life Sciences Ltd., priority 2007, dated 2015)

system: primary hepatocytes isolated from rats; assay: Hepatocyte protective effect against substances deriving hepatocyte toxicity (WST-1 viability); assay type: cell-based; conditions: Rattus norvegicus, Hepatocyte, doxorubicin, 24-48 h, read-out: EC50, cell protective effects against doxorubicin in hepatocytes
Description: Various endogenous/exogenous attacks on the cells trigger the mechanisms of cell death which is broadly classified into two types, i.e. apoptosis or necrosis. Using these cell death mechanisms, in the present experimental example, primary hepatocytes isolated from rats were treated with drugs which were clinically shown to result in serious side-effects of hepatocyte toxicity or various chemicals which derive cell death, and the compounds synthesized in the Examples were estimated for their hepatocyte protective effects, after 24-48 h. The substances used to derive hepatocyte death include CCl4, ActD, H2O2, doxorubicin, anti-Fas Ab/Actinomycin D, acetaminophen, EtOH, CdCl2, palmitate, stearate, cyclophosphamide, terfenadine, diclofenac, simvastatin, and adefovir. Primary hepatocytes were isolated using the method of Seglen PO (Experimental Cell Research 74 (1972) pp 450-454). Briefly, hepatocytes were isolated according to the two-step collagenase perfusion method, and dead cells were removed by low speed (500 rpm) centrifugation for 10 min using percoll gradient (Kreamer B L etc, In Vitro Cellular & Developmental Biology 22 (1986) pp 201-211). During this step, the viability of cells was maintained 90% or above. The cells were suspended in HepatoZYME media (Gibco BRL), and the number of cells was counted. 1.5×10^4 cells in 100 μl were placed into the collagen-coated 96-well plate (BD biocoat), and adhered on the bottom for 3-4 h.
In order to assess the hepatocyte protective effect, above adhered cells were pretreated with the Example compounds for 30 min. At this time, the concentration of the Example compounds were serially diluted by 2-fold or 3-fold over 5 steps starting from 30 uM, 10 uM or 1 uM depending on the experiments, and the final concentration of DMSO was adjusted to 0.2%. 30 min after the treatment by compounds, cells were treated by the substances deriving hepatocyte death or hepatotoxic drugs at the concentrations indicated in Table 1. After 24-48 h, the viability of cells was determined to estimate the hepatocyte protective effects. The viability of cells was determined using WST-1 (MK-400, […]) method by the absorbance at 440 nm. Hepatocyte protective effects of the Example compounds were represented by “EC50,” which was calculated from measured values. “EC50” herein means the concentration of the compound at which 50% of maximum protective effect is observed in the experiment.

**Q.** Which EC50 does the source give for `CCN(CC)CCn1c(-c2ccccc2)cc2cc(Cl)cc(NC3CCOCC3)c21` [Example 64, (Tetrahydropyran-4-yl)-[5-chloro-1-(2-diethylaminoethyl)-2-phenyl-1H-indol-7-yl]amine] here?
**A.** 260 nM

**Q.** `O=C(Nc1ccccc1)N1CCC(Nc2cc(Cl)cc3cc(-c4ccccc4)[nH]c23)CC1` [Example 94, 4-(5-Chloro-2-phenyl-1H-indol-7-yl)amino-piperidin-1-yl-carboxylic acid phenylamide] was tested. Which EC50 did it give?
**A.** 80 nM

**Q.** `Clc1cc(NC2CCOCC2)c2[nH]c(-c3ccccc3)c(CN3CCOCC3)c2c1` [Example 68, (Tetrahydropyran-4-yl)-(5-chloro-3-(morpholin-4-yl)methyl-2-phenyl-1H-indol-7-yl)-amine] was tested. Which EC50 did it give?
**A.** 320 nM

**Q.** `O=C(O)C[C@@H]1CSC(c2cc(NC3CCCC3)c3[nH]c(-c4ccccc4)cc3c2)=N1` [Example 121, 2-[(R)-2-(7-cyclopentylamino-2-phenyl-1H-indol-5-yl)-4,5-dihydro-thiazol-4-yl]-acetic acid] was tested. Which EC50 did it give?
**A.** 200 nM

**Q.** Which EC50 does the source give for `O=C(O)Cc1ccc(-c2cc3cc(Cl)cc(NC4CCOCC4)c3[nH]2)cc1` [Example 141, 2-{4-[5-Chloro-7-(tetrahydropyran-4-yl)amino-1H-indol-2-yl]phenyl}-acetic acid] here?
**A.** 460 nM

**Q.** With `OCCc1cc(NC2CCCC2)c2[nH]c(-c3ccccc3)cc2c1` [Example 32, 2-[7-(Cyclopentylamino)-2-phenyl-1H-indol-5-yl]ethanol] as the compound, how does the EC50 read?
**A.** 130 nM

**Q.** For `O=S1(=O)CCN(Cc2cc(NC3CCOCC3)c3[nH]c(-c4ccccc4)c(Br)c3c2)CC1` [Example 72, (Tetrahydropyran-4-yl)-(3-bromo-5-(1,1-dioxo-thiomorpholin-4-yl)methyl-2-phenyl-1H-indol-7-yl)-amine], which EC50 is on record?
**A.** 60 nM

**Q.** Which EC50 does the source give for `Clc1cc(NC2CCOCC2)c2[nH]c(-c3cccc(CN4CCOCC4)c3)cc2c1` [Example 148, [5-Chloro-2-(3-morpholin-4-ylmethylphenyl)-1H-indol-7-yl]-(tetrahydropyran-4-yl)-amine] here?
**A.** 160 nM

**Q.** `O=S1(=O)CCN(Cc2cc(NCC3CCNCC3)c3[nH]c(-c4ccccc4)cc3c2)CC1` [Example 96, [5-(1,1-Dioxo-thiomorpholin-4-yl)methyl-2-phenyl-1H-indol-7-yl]-(piperidin-4-yl)methyl-amine] was tested. Which EC50 did it give?
**A.** 120 nM

**Q.** `O=S1(=O)CCN(Cc2cc(NC3CCCC3)c3[nH]c(-c4ccccc4)c(Br)c3c2)CC1` [Example 73, Cyclopentyl-(3-bromo-5-(1,1-dioxo-thiomorpholin-4-yl)methyl-2-phenyl-1H-indol-7-yl)-amine] was tested. Which EC50 did it give?
**A.** 120 nM

**Q.** With `CNC(=O)C1CCC(Nc2cc(Cl)cc3cc(-c4ccccc4)[nH]c23)CC1` (centres unmarked) [Example 105, 4-(5-Chloro-2-phenyl-1H-indol-7-yl)amino-cyclohexanecarboxylic acid methylamide] as the compound, how does the EC50 read?
**A.** 70 nM

**Q.** For `O=C(O)Cc1cc(NC2CCCC2)c2[nH]c(-c3ccccc3)cc2c1` [Example 33, 2-[7-(Cyclopentyl)amino-2-phenyl-1H-indol-5-yl]acetic acid], which EC50 is on record?
**A.** 150 nM

**Q.** For `CC(=O)Nc1ccc(-c2cc3cc(CN4CCS(=O)(=O)CC4)cc(NC4CCCC4)c3[nH]2)cc1` [Example 85, Cyclopentyl-{5-(1,1-dioxo-thiomorpholin-4-yl)methyl-2-[4-(acetyl)aminophenyl]-1H-indol-7-yl}-amine], which EC50 is on record?
**A.** 360 nM

**Q.** Which EC50 does the source give for `Clc1cc(NC2CCC3(CC2)OCCO3)c2[nH]c(-c3ccccc3)cc2c1` [Example 53, (1,4-Dioxaspiro[4.5]decan-8-yl)-(5-chloro-2-phenyl-1H-indol-7-yl)-amine] here?
**A.** 40 nM

**Q.** Which EC50 does the source give for `Cc1cc(NCC2CCCC2)c2[nH]c(-c3ccccc3)cc2c1` [Example 42, Cyclopentylmethyl-(5-methyl-2-phenyl-1H-indol-7-yl)-amine] here?
**A.** 40 nM

**Q.** How did the EC50 turn out when `Cc1cc(NC2CCN(C(=O)CO)CC2)c2[nH]c(-c3ccccc3)cc2c1` [Example 92, 2-Hydroxy-1-[4-(5-methyl-2-phenyl-1H-indol-7-yl)amino-piperidin-1-yl]-ethanone] was run?
**A.** 36 nM

**Q.** Which EC50 does the source give for `Cc1cc(NC2CCN(S(C)(=O)=O)CC2)c2[nH]c(-c3ccccc3)cc2c1` [Example 91, [1-(Methanesulfonyl)piperidin-4-yl]-(5-methyl-2-phenyl-1H-indol-7-yl)-amine] here?
**A.** 42 nM

**Q.** `Cc1cc(NC2CCC(C(=O)O)CC2)c2[nH]c(-c3ccccc3)cc2c1` (centres unmarked) [Example 103, 4-(5-Methyl-2-phenyl-1H-indol-7-yl)amino-cyclohexane-1-carboxylic acid] was tested. Which EC50 did it give?
**A.** 106 nM

**Q.** How did the EC50 turn out when `Cc1cc(NC2CCN(Cc3ccccc3)C2)c2[nH]c(-c3ccccn3)cc2c1` (centres unmarked) [Example 14, (1-Benzylpyrrolidin-3-yl)[5-methyl-2-(pyridin-2-yl)-1H-indol-7-yl]-amine] was run?
**A.** 300 nM

**Q.** Which EC50 does the source give for `c1ccc(Oc2cc(NC3CCCC3)c3[nH]c(-c4ccccn4)cc3c2)cc1` [Example 9, Cyclopentyl-[5-phenoxy-2-(pyridin-2-yl)-1H-indol-7-yl]-amine] here?
**A.** 200 nM

**Q.** With `Clc1cc(NC2CCOCC2)c2[nH]c(-c3cccc(CC4CCNC4)c3)cc2c1` (centres unmarked) [Example 149, [5-Chloro-2-(3-pyrrolidin-4-ylmethylphenyl)-1H-indol-7-yl]-(tetrahydropyran-4-yl)-amine] as the compound, how does the EC50 read?
**A.** 550 nM

**Q.** For `CC(Nc1cc(Cl)cc2cc(-c3ccccc3)[nH]c12)C(=O)O` (centres unmarked) [Example 112, 2-(5-Chloro-2-phenyl-1H-indol-7-yl)amino-propionic acid], which EC50 is on record?
**A.** 450 nM

**Q.** For `Clc1cc(NC2CCCC2)c2[nH]cc(-c3ccccc3)c2c1` [Example 80, Cyclopentyl-(5-chloro-3-phenyl-1H-indol-7-yl)-amine], which EC50 is on record?
**A.** 100 nM

**Q.** How did the EC50 turn out when `Cc1cc(NC2CCCC2)c2[nH]c(-c3ccccn3)cc2c1` [Example 1, Cyclopentyl-[5-methyl-2-(pyridin-2-yl)-1H-indol-7-yl]-amine] was run?
**A.** 100 nM

**Q.** How did the EC50 turn out when `Cc1cc(NC2CCCC2)c2[nH]c(-c3cnccn3)cc2c1` [Example 6, Cyclopentyl-[5-methyl-2-(pyrazin-2-yl)-1H-indol-7-yl]-amine] was run?
**A.** 300 nM

**Q.** For `Cc1cc(NC2CCN(C)CC2)c2[nH]c(-c3ccccc3)cc2c1` [Example 44, (1-Methylpiperidin-4-yl)-(5-methyl-2-phenyl-1H-indol-7-yl)-amine], which EC50 is on record?
**A.** 170 nM

**Q.** For `Cc1cc(N(C)C)c2[nH]c(-c3ccccn3)cc2c1` [Example 17, Dimethyl-[5-methyl-2-(pyridin-2-yl)-1H-indol-7-yl]-amine], which EC50 is on record?
**A.** 540 nM

**Q.** For `O=C(O)c1ccccc1-c1cc2cc(Cl)cc(NC3CCCC3)c2[nH]1` [Example 134, 2-(5-Chloro-7-cyclopentylamino-1H-indol-2-yl)-benzoic acid], which EC50 is on record?
**A.** > 1000 nM

**Q.** With `CN(C)CC(=O)N1CCC(Nc2cc(Cl)cc3cc(-c4ccccc4)[nH]c23)CC1` [Example 95, 1-[4-(5-Chloro-2-phenyl-1H-indol-7-yl)amino-piperidin-1-yl]-2-dimethylamino-ethanone] as the compound, how does the EC50 read?
**A.** 210 nM

**Q.** For `O=C(O)Cc1ccc(-c2cc3cc(Cl)cc(NCC4CCOCC4)c3[nH]2)cc1` [Example 139, 2-{4-[5-Chloro-7-(tetrahydropyran-4-ylmethyl)amino-1H-indol-2-yl]phenyl}-acetic acid], which EC50 is on record?
**A.** 330 nM

**Q.** With `CN1CCC(Nc2ccc(-c3cc4cc(Cl)cc(NC5CCCC5)c4[nH]3)cc2)CC1` [Example 83, Cyclopentyl-{5-chloro-2-[4-(1-methyl-piperidin-4-yl)aminophenyl]-1H-indol-7-yl}-amine] as the compound, how does the EC50 read?
**A.** 50 nM

**Q.** How did the EC50 turn out when `COC(=O)c1ccccc1-c1cc2cc(Cl)cc(NC3CCCC3)c2[nH]1` [Example 135, 2-(5-Chloro-7-cyclopentylamino-1H-indol-2-yl)-benzoic acid methyl ester] was run?
**A.** 150 nM
